Assay results as given in patent EP0147980A2, “A 5-nitro-2-furanyl derivative and its use as an anti-parasitic agent” (Rossignol, Jean François, priority 1983, dated 1985).
Values joined by “and” are separate entries in the source; they are usually repeats but may differ in a detail not shown here. Equal entries are not always repeated.

How the values were obtained:
Assay type in all cases: in vivo
S. japonicum = assay: Primary curative test against S. japonicum in hamsters; settings: 1 g/kg single oral gavage
Source text: The primary curative test evaluates the therapeutic activity of the drug against S. japonicum in hamsters. Interpretation of the test is based upon observation of a shift of worms from the portal and mesenteric veins to the liver under the influence of the test drug. In addition the mortality of the worms found in the liver, portal and mesenteric veins is also an important criteria of effectiveness in establishing the schistosomicidal effectiveness of the drug. Hamsters weighing 150 to 250 grams were exposed to 100 S. japonicum cercariae by the ring method. 35 to 45 days after infection, the test compound (I) was administered as a single […] by oral gavage, the product being suspended in gum syrup. Out of 10 infected animals, 5 were so treated, with 5 being used as control animals. Hamsters were sacrificed three days after treatment; the liver was removed as well as the portal and mesenteric veins, squashed between two slides and the number of live or dead worms in the liver, the portal and mesenteric veins was recorded.

Schistosoma mansoni [1] = assay: Primary curative test against Schistosoma mansoni in hamster
Procedure: The primary curative test evaluates the therapeutic activity of the drug against S. mansoni in hamster. Interpretation of the test is based upon observation of a shift of worms from the portal and mesenteric veins to the liver under the influence of the test drug. Hamsters weighing 150 to 250 grams were exposed to 150-250 S. mansoni cercariae by the ring method. 30 to 35 days after infection, the test drug (compound (I)) was administered as a 200 mg/kg daily dose for four consecutive days. The drug was administered by oral gavage suspended in gum syrup. Hamsters were sacrificed three days after the last drug treatment. The liver was removed, squashed between two slides, and the number of live and dead worms in the liver were recorded. From experience, the total worm burden in the portal circulation of S. mansoni infected hamsters ranges from 20 to 50 worms, i.e., […] of the total number of cercariae injected. Over 80% of these worms reside in the extra-hepatic portal and mesenteric veins. Thus, when the liver is removed in control animals about 10 worms could be counted in the liver.

[2] = Acute oral toxicity study in mice
Procedure: The test chemical was administered as a single 4,000 mg/kg oral dose to five male and five female Swiss mice.

Schistosoma mansoni [3] = assay: Primary prophylactic test (mortality test) against Schistosoma mansoni in mice
Procedure: The primary screening method used to evaluate prophylactic activity against Schistosoma mansoni is a mortality test. Mice are exposed to a massive number of cercariae by tail immersion. In untreated control mice this exposure produces a reproducible mortality pattern with 99+% of the mice dying between 20 and 30 days (mean survival time 24 days). The test compound is administered in a single dose two days after cercarial exposure. A compound is considered active if mice survive to 49 days, at which time they are sacrificed and examined for worms.
The test is of the "prophylactic"-type in the sense that the drug action is on the immature migrating schistosomes and prevents the development of adult worms in the portal circulation.
Mice weighing 18 to 23 grams were exposed to 3500-4500 infective S. mansoni cercariae by tail immersion for 30 minutes, and subsequently housed in groups of five per cage (5 test mice and 5 control mice). Two days after infection, the test compound of the formula (I) was administered subcutaneously as a single 1,280 mg/kg dose suspended in peanut oil to one group of five mice.
Mouse mortality was recorded daily for 49 days after infection. On the 49th day, survivors were sacrificed and the total worm burden was determined by perfusion of the liver and portal circulation (perf-o-suction technique).
Control mice exposed to at least 3500 cercariae and not treated with the test compound (I) experience 99+% mortality, with nearly all deaths occurring between about day 20 and day 30. In treated mice, deaths occurring within one week after drug administration are assumed to be induced by the toxic action of the drug itself, since, control mice rarely die during this period. The survival of drug treated mice to 49 days is interpreted as evidence of drug action which kills or otherwise prevents the development of the migrating immature schistosomes. The- survival of only one mouse has, in our experience, been difficult to reproduce, and, in general, a compound is not considered active unless two or more mice survive to 49 days.

[4] = individual treated hamsters 1-5
[5] = individual hamsters 1-5, 200 mg/kg daily for four consecutive days, oral gavage, sacrificed three days after last treatment, 200 mg/kg
[6] = individual surviving mice (Mouse 1-3) sacrificed day 49, 1,280 mg/kg s.c.
[7] = mean of three surviving mice, day 49, 1,280 mg/kg s.c.

SMILES: COc1ccc(NC(=O)C=Cc2ccc([N+](=O)[O-])o2)c(C)c1 [compound (I), N-(4-methoxy-2-methylphenyl)-3-(5-nitro-2-furanyl) propenamide]
- shift of worms from the portal and mesenteric veins to the liver (S. japonicum): marked shift of the worms from the portal and mesenteric veins to the liver
- worms killed on the average in the liver, the portal and mesenteric veins (S. japonicum; average of five treated hamsters): about 86%
- No. of worms found, Liver, Female (S. japonicum; [4]): 7 and 6 (3×) and 4
- No. of worms found, Mesenteric, Female (S. japonicum; [4]): 5 and 4 (3×) and 2
- No. of worms found, Mesenteric, Male (S. japonicum; [4]): 7 (2×) and 6 and 4 and 8
- No. of worms found, Portal, Female (S. japonicum; [4]): 0
- No. of worms found, Portal, Male (S. japonicum; [4]): 0
- No. of worms found, Liver, Male (S. japonicum; individual treated hamsters 1-5, sacrificed three days after treatment): 8 (2×) and 14 (2×) and 9
- % dead (S. japonicum; worms, individual treated hamsters 1-5, controls 0): 100% (3×) and 70% and 60%
- shift of worms from the portal and mesenteric veins to the liver (Schistosoma mansoni [1]; 200 mg/kg daily x 4 days oral, parasites in the liver were dead): marked shift of the worms from the portal and mesenteric veins to the liver
- effective dose (Schistosoma mansoni [1]; for four consecutive days, oral gavage, hamster): 200 mg/kg per day
- No. of worms found in the liver, Treated Animals, F (Schistosoma mansoni [1]; [5]): 17 and 6 and 18 and 60 and 54
- No. of worms found in the liver, Treated Animals, M (Schistosoma mansoni [1]; [5]): 17 and 10 (2×) and 50 and 46
- Mean No. of worms found in the liver, Treated Animals, F (Schistosoma mansoni [1]; mean of five treated hamsters, 200 mg/kg daily x 4 days oral, controls 12.0): 31.0
- Mean No. of worms found in the liver, Treated Animals, M (Schistosoma mansoni [1]; mean of five treated hamsters, 200 mg/kg daily x 4 days oral, controls 15.3): 26.6
- LD50 at 336 h ([2]; mouse, in vivo, po, administered orally in mice): > 4000 mg/kg
- clinical observation, weights and macroscopic examination of organs ([2]; single 4,000 mg/kg oral dose, five male and five female Swiss mice, 14 days): no adverse pattern
- mice survived until day 49 (Schistosoma mansoni [3]; group of five mice, single 1,280 mg/kg subcutaneous dose in peanut oil two days after infection): Three
- day of death of the two test mice that died (Schistosoma mansoni [3]; group of five mice, single 1,280 mg/kg subcutaneous dose, control mice died at days 19, 22, 25, 28 and 32): 41 days
- worm burden, Female (Schistosoma mansoni [3]; [6]): 5 and 7 and 6
- worm burden, Total (Schistosoma mansoni [3]; [6]): 15 and 19 and 16
- worm burden, Male (Schistosoma mansoni [3]; individual surviving mice (Mouse 1-3) sacrificed day 49, 1,280 mg/kg s.c., perfusion of liver and portal circulation): 10 (2×) and 12
- worm burden, Female, mean (Schistosoma mansoni [3]; [7]): 6.0
- worm burden, Male, mean (Schistosoma mansoni [3]; [7]): 10.6
- worm burden, Total, mean (Schistosoma mansoni [3]; [7]): 16.6
- activity against the migrating stage of Schistosoma mansoni in mice (Schistosoma mansoni [3]; single subcutaneous administration of 1,280 mg/kg, active = two or more mice survive to 49 days): active
